Where two headings read alike, the source gives them in different places.
Experiments:
[1] = target: T1, human plasmin (Homo sapiens, UniProt P00747); assay: biochemical; details: read-out: Plasmin S-2251 (I50)
Summary of the method: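 Inhibitor in 0.05M Tris-HCl buffer, pH 7.4, was incubated with human plasmin added at 0.2 casein unit/ml (stock) at 37° C for 4 minutes, then stopped with 50% acetic acid. I50 (μmol) is the inhibitor concentration giving half the absorbance obtained without inhibitor.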

[2] = target: T1, human plasmin; assay: Antiplasmin activity: inhibition of fibrin decomposition; assay type: biochemical; details: read-out: Plasmin Fibrin (I50)
Summary of the method: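 Inhibitor in 0.18 M borate–physiological saline buffer, pH 7.4, received bovine fibrinogen (0.2% solution), human plasmin (0.3 casein unit/ml solution) and bovine thrombin (50 unit/ml solution) at 37 °C. Time for the resulting fibrin clot to dissolve was recorded.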

[3] = target: T2, bovine thrombin (Bos taurus, UniProt P00735); assay: Antithrombin activity: inhibition of S-2238 decomposition; assay type: biochemical
Method: (ii) Determination of inhibition activity for S-2238 decomposition
An inhibitor sample is dissolved in a 0.05M Tris-hydrochloric acid buffer solution (pH=8.3) to make a total volume of 400 μl. To this solution, 50 μl of a 0.2 mM S-2238 solution is added and the mixture is incubated at a temperature of 37° C. for 5 minutes in a constant temperature bath. Then, 50 μl of a 0.2 unit/ml bovine thrombin solution is added thereto and the absorbance, at 405 nm, of the p-nitroaniline formed per minute is determined at a temperature of 37° C. by using the so-called initial velocity method. Thus, the concentration I50 (μmol) of the inhibitor sample at which the absorbance is one half (i.e., 1/2) of that obtained in the absence of the inhibitor sample, is determined.

[4] = target: T2, bovine thrombin; assay: Antithrombin activity: inhibition of fibrin formation from fibrinogen; assay type: biochemical
Summary of the method: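 Inhibitor in 0.18M borate-saline buffer pH 7.4 mixed with 0.2% bovine fibrinogen and 4 unit/ml bovine thrombin (stock levels) at 37° C; clotting time measured. I50 is the inhibitor concentration doubling coagulation time versus uninhibited control.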

[5] = target: T3, bovine trypsin (Bos taurus, UniProt P00760); assay: Antitrypsin activity: inhibition of S-2238 decomposition; assay type: biochemical
T3 sequence (P00760 24-246): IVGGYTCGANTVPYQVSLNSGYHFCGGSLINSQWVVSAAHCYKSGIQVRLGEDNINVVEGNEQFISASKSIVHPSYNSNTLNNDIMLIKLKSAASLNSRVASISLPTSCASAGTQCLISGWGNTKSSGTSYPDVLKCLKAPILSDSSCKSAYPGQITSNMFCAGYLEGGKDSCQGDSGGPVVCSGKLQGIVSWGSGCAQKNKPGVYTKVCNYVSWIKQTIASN
Method: Determination of inhibition activity against S-2238 decomposition
An inhibitor sample is dissolved in a 0.05M Tris-imidazole buffer solution (pH=8.1) and 125 μl of a 1 mM S-2238 solution is added to make the total volume to 1.20 ml. The mixture is incubated at a temperature of 37° C. for 5 minutes in a constant temperature bath. To this mixture, 0.05 ml of bovine trypsin is added and the absorbance, at 405 nm, of the p-nitroaniline formed per minute is determined at a temperature of 37° C. by using the so-called initial velocity method. Thus, the concentration I50 (μmol) of the inhibitor sample, at which the absorbance is one half (i.e., 1/2) of that obtained in the absence of the inhibitor sample, is determined.

[6] = target: human plasma kallikrein (Homo sapiens, UniProt P03952); assay: Anti-plasma kallikrein activity: inhibition of S-2302 decomposition; assay type: biochemical
Method: Determination of inhibition activity for S-2302 decomposition
An inhibitor sample is dissolved in a 0.05M Tris-hydrochloric acid buffer solution (pH=7.8) to make the total volume to 400 μl. To this solution, 50 μl of a 2 mM S-2302 solution is added and the mixture is incubated at a temperature of 37° C. for 5 minutes in a constant temperature bath. Then, 50 μl of a 0.12 unit/ml human plasma kallikrein is added and the mixture is incubated at a temperature of 37° C. for 5 minutes. Thereafter, 50 μl of 50% acetic acid is added to terminate the reaction. The absorbance of the p-nitroaniline formed in the reaction mixture is measured at 405 nm. Thus, the concentration I50 (μmol) of the inhibitor sample, at which the absorbance is one half (i.e., 1/2) of that obtained in the absence of the inhibitor sample, is determined.

[7] = target: human urokinase (Homo sapiens, UniProt P00749); assay: biochemical
Summary of the method: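 Inhibitor in 0.05M Tris-HCl pH 8.8 preincubated 5 min at 37° C with S-2444 (1 mM solution added), then human urokinase (500 unit/ml solution) added for 5 min at 37° C; stopped with 50% acetic acid. p-Nitroaniline read at 405 nm; I50 is concentration halving absorbance versus no inhibitor.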

[8] = Table 2, concentration at which fibrin dissolution time is extended twice, pH 7.4, 37° C.
[9] = Table 2, S-2238 substrate, pH 8.3, 37° C., read-out: Thrombin S-2238 (I50)
[10] = Table 2, S-2238 substrate, pH 8.1, 37° C., read-out: Trypsin S-2238 (I50)
[11] = Table 2, S-2302 substrate, pH 7.8, 37° C., read-out: Plasma Kallikrein S-2302 (I50)
[12] = Table 2, S-2444 substrate, pH 8.8, 37° C., read-out: Urokinase S-2444 (I50)
[13] = Table 2, 50% inhibition concentration, S-2251 substrate, pH 7.4, 37° C.
[14] = read-out: Thrombin Fibrinogen (I50), Table 2, concentration at which coagulation time of bovine fibrinogen is extended twice, pH 7.4, 37° C.

Sequence of human plasma kallikrein (P03952 391-638 limits assumed): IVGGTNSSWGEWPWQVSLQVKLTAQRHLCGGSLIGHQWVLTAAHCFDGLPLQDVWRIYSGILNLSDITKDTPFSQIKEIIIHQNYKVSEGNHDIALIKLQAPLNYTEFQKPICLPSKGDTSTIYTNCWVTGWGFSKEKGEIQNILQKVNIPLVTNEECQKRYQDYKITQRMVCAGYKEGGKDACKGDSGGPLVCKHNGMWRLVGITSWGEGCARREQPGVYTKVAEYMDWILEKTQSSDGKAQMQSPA
Sequence of human plasma kallikrein (P03952 20-390 partner limits assumed): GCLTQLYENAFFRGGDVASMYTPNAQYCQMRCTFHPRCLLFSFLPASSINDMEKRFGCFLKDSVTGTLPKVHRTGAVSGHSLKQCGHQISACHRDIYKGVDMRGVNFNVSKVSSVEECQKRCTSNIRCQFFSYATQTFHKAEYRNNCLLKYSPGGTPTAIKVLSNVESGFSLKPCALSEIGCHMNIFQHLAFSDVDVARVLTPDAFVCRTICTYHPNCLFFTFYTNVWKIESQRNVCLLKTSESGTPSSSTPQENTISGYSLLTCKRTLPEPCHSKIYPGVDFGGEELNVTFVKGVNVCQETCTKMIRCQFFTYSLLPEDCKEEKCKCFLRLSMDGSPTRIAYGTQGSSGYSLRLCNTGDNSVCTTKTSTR
T1 sequence (P00747 581-810 limits assumed): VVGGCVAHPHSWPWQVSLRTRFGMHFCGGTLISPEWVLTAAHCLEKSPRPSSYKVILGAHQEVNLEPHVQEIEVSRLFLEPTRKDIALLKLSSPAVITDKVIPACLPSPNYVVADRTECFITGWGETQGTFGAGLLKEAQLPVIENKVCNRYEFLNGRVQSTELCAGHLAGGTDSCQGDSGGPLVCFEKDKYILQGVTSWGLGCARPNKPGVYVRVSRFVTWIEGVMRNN
T1 sequence (P00747 97-580 partner limits assumed): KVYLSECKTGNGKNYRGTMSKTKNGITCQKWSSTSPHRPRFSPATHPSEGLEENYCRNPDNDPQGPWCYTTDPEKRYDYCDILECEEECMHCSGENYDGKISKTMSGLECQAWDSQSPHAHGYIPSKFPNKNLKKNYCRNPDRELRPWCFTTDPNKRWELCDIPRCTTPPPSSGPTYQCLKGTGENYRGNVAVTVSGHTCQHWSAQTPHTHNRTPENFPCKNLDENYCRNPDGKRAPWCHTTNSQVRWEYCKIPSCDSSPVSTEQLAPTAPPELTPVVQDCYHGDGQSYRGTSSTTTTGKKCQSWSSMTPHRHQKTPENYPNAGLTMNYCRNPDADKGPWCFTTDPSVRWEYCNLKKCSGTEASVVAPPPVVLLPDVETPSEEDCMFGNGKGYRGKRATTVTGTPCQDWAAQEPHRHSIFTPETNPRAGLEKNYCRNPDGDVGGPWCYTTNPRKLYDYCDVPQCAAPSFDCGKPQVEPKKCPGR

Compound	IC50 ([1]; Table 4, comparative compounds of Table 3, S-2251 substrate, pH 7.4, 37° C.) [µM]	IC50 ([2]; Table 4, comparative compounds of Table 3, fibrin dissolution time extended twice) [µM]	IC50 ([3]; Table 4, comparative compounds of Table 3, S-2238 substrate, pH 8.3, read-out: Thrombin S-2238 (I50)) [µM]	IC50 ([4]; Table 4, comparative compounds of Table 3, coagulation time extended twice, read-out: Thrombin Fibrinogen (I50)) [µM]	IC50 [5] [µM]	IC50 [6] [µM]	IC50 [7] [µM]	IC50 [1] [µM]	IC50 [2, 8] [µM]	IC50 [3, 9] [µM]	IC50 [4] [µM]	IC50 [5, 10] [µM]	IC50 [6, 11] [µM]	IC50 [7, 12] [µM]	IC50 [3] [µM]	IC50 [1, 13] [µM]	IC50 [4, 14] [µM]
CC(=O)NC(Cc1ccc([N+](=O)[O-])cc1)C(=O)Nc1ccc([N+](=O)[O-])cc1 (centres unmarked) [Table 3 Compound No. 4, reference compound]	> 100	> 100	> 100	> 100	> 150	> 100	> 100	–	–	–	–	–	–	–	–	–	–
CSc1ccc(NC(=O)[C@H](Cc2ccc(OCc3ccccc3)cc2)NC(=O)[C@H]2CC[C@H](CN)CC2)cc1 [compound 29]	–	–	–	–	–	–	–	3.1	0.35	> 50	> 25	3.1	1.1	330	–	–	–
CC(=O)c1ccc(NC(=O)[C@H](Cc2ccc(OCC(=O)c3ccccc3)cc2)NC(=O)[C@H]2CC[C@H](CN)CC2)cc1 [compound 30]	–	–	–	–	–	–	–	1.4	0.95	280	> 50	1	0.37	80	–	–	–
NC[C@H]1CC[C@H](C(=O)NC(Cc2ccc(N)cc2)C(=O)Nc2ccc(C(=O)c3ccccc3)cc2)CC1 (some centres unmarked) [compound 33]	–	–	–	–	–	–	–	13	12	> 200	> 200	0.52	8.5	11	–	–	–
NC[C@H]1CC[C@H](C(=O)N[C@@H](Cc2ccc(OCc3ccccc3)cc2)C(=O)Nc2cccc(Cl)c2)CC1 [compound 36]	–	–	–	–	–	–	–	1.7	0.41	–	> 50	0.82	1.2	100	> 125	–	–
CC1CCC(NC(=O)[C@H](Cc2ccc(OCc3ccccc3)cc2)NC(=O)c2ccc(CN)cc2)CC1 (some centres unmarked) [compound 38]	–	–	–	–	–	–	–	2.3	0.41	> 50	> 50	2.5	60	> 400	–	–	–
NC[C@H]1CC[C@H](C(=O)N[C@@H](Cc2ccc(OCc3ccccc3)cc2)C(=O)Nc2cccc([N+](=O)[O-])c2)CC1 [compound 44]	–	–	–	–	–	–	–	3.8	0.95	> 500	> 100	1.1	1.2	60	–	–	–
NC[C@H]1CC[C@H](C(=O)N[C@@H](Cc2ccc(OCc3ccccc3)cc2)C(=O)N2CCC(C(=O)c3ccccc3)CC2)CC1 [compound 48]	–	–	–	–	–	–	–	5.3	3.4	–	> 100	22	> 100	> 200	> 200	–	–
CC(=O)c1ccc(NC(=O)[C@H](Cc2ccc(OCc3cccc([N+](=O)[O-])c3)cc2)NC(=O)[C@H]2CC[C@H](CN)CC2)cc1 [compound 54]	–	–	–	–	–	–	–	1	0.19	> 200	> 100	1	0.45	35	–	–	–
CC(=O)c1ccc(NC(=O)[C@H](Cc2ccc(OCc3cccc(C(F)(F)F)c3)cc2)NC(=O)[C@H]2CC[C@H](CN)CC2)cc1 [compound 55]	–	–	–	–	–	–	–	1.2	0.29	> 125	> 50	2.6	0.42	57	–	–	–
CC(=O)c1ccc(NC(=O)[C@H](Cc2ccc(OCc3cccc(F)c3)cc2)NC(=O)[C@H]2CC[C@H](CN)CC2)cc1 [compound 56]	–	–	–	–	–	–	–	1.9	0.29	500	> 100	1.2	0.76	46	–	–	–
C=CCOc1ccc(C[C@H](NC(=O)[C@H]2CC[C@H](CN)CC2)C(=O)Nc2ccc(C(C)=O)cc2)cc1 [compound 57]	–	–	–	–	–	–	–	4.6	3.3	730	> 500	0.73	1.4	45	–	–	–
Cc1ccc(NC(=O)[C@H](Cc2ccc(OCc3ccccc3)cc2)NC(=O)[C@H]2CC[C@H](CN)CC2)cc1C [compound 58]	–	–	–	–	–	–	–	3.4	0.72	> 125	> 50	1.3	2.8	> 150	–	–	–
NCc1ccc(C(=O)N[C@@H](Cc2ccc(OCc3ccccc3)cc2)C(=O)NC2CC3CCC2C3)cc1 (some centres unmarked) [compound 62]	–	–	–	–	–	–	–	1.8	0.58	> 200	> 100	2.4	8.3	> 500	–	–	–
NC[C@H]1CC[C@H](C(=O)N[C@@H](Cc2ccc(OCc3ccccc3)cc2)C(=O)NC2CC3CCC2C3)CC1 (some centres unmarked) [compound 64]	–	–	–	–	–	–	–	2.5	0.49	–	> 250	1.1	2.3	65	> 400	–	–
NC[C@H]1CC[C@H](C(=O)N[C@@H](Cc2ccc(OCc3cccc(Cl)c3)cc2)C(=O)Nc2cccc(Cl)c2)CC1 [compound 66]	–	–	–	–	–	–	–	0.8	0.092	> 50	> 50	3.9	0.54	350	–	–	–
CC(=O)c1ccc(NC(=O)[C@H](Cc2ccc(OCc3ccncc3)cc2)NC(=O)[C@H]2CC[C@H](CN)CC2)cc1 [compound 68]	–	–	–	–	–	–	–	1.2	0.65	> 400	> 500	1	1.2	25	–	–	–
CCOC(=O)C1CCCC(NC(=O)[C@H](Cc2ccc(OCc3cccc(Cl)c3)cc2)NC(=O)[C@H]2CC[C@H](CN)CC2)C1 (some centres unmarked) [compound 70]	–	–	–	–	–	–	–	–	0.63	170	–	1.3	6.2	82	–	1.7	> 50
CCOC(=O)C1CCCC(NC(=O)[C@H](Cc2ccc(OCc3cccc(Cl)c3)cc2)NC(=O)c2ccc(CN)cc2)C1 (some centres unmarked) [compound 72]	–	–	–	–	–	–	–	–	0.62	> 50	–	0.95	25	> 200	–	2.1	> 25
NCc1ccc(C(=O)N[C@@H](Cc2ccc(OCc3ccccc3)cc2)C(=O)N2CCN(C(=O)c3ccccc3)CC2)cc1 [compound 73]	–	–	–	–	–	–	–	220	210	> 400	> 400	450	> 200	> 200	–	–	–
CCOC(=O)c1cccc(NC(=O)[C@H](Cc2ccc(OCc3ccccc3)cc2)NC(=O)[C@H]2CC[C@H](CN)CC2)c1 [compound 75]	–	–	–	–	–	–	–	5.6	0.88	> 125	> 100	1.1	2.4	65	–	–	–
NCc1ccc(C(=O)N[C@@H](Cc2ccc(OCc3ccccc3)cc2)C(=O)N2CCC(C(=O)c3ccccc3)CC2)cc1 [compound 76]	–	–	–	–	–	–	–	5.8	2.4	> 50	> 25	38	> 200	> 250	–	–	–
NCc1ccc(C(=O)N[C@@H](Cc2ccc(OCc3ccccc3)cc2)C(=O)NCCc2ccccc2)cc1 [compound 78]	–	–	–	–	–	–	–	3.8	0.75	–	> 50	9.2	100	> 200	> 50	–	–
